Results published in patent publication US9884832B2 (priority 2011, dated 2018).
Like-named read-outs stand apart in the source and are kept apart here.

Columns and labels:
[1] = biological target: AM2 S31N (serine→asparagine mutation at residue 31 in the M2 protein) (Influenza A virus, UniProt P0DOF5, S31N); format: cell-based, influenza virus A/Udorn/72
[2] = biological target: AM2 V27A (valine→alanine mutation at residue 27 in the M2 protein) (Influenza A virus, UniProt P0DOF5, V27A); format: cell-based, influenza virus A/Udorn/72

## c1csc(-c2cc(CNC34CC5CC(CC(C5)C3)C4)no2)c1 [Example 142a, N-((5-(thiophen-2-yl)isoxazol-3-yl)methyl)adamantan-1-amine]
[1]
  S31N OOcyte Inhibition at 100 uM (%): A (key: (A)=31-95%; (B)=0-30%)
[2]
  V27A OOcyte Inhibition at 100 uM (%): B (key: (A)=31-95%; (B)=0-30%)

## Oc1cccc(CNC23CC4CC(CC(C4)C2)C3)c1O [Example 64, 3-(Adamantan-1-ylaminomethyl)-benzene-1,2-diol]
[1]; pH 5.5
  S31N OOcyte Inhibition at 100 uM (%): B (key: (A)=31-95%; (B)=0-30%)
[2]; pH 5.5
  V27A OOcyte Inhibition at 100 uM (%): A (key: (A)=31-95%; (B)=0-30%)

## c1cc(-c2ccc(CNC34CC5CC(CC(C5)C3)C4)s2)[nH]n1 [Example 158a, N-((5-(1H-pyrazol-5-yl)thiophen-2-yl)methyl)adamantan-1-amine]
[1]
  S31N OOcyte Inhibition at 100 uM (%): A (key: (A)=31-95%; (B)=0-30%)
[2]
  V27A OOcyte Inhibition at 100 uM (%): A (key: (A)=31-95%; (B)=0-30%)

## Oc1ccc(CNC23CC4CC(CC(C4)C2)C3)c(Cl)c1 [Example 58, 4-(Adamantan-1-ylaminomethyl)-3-chloro-phenol]
[1]; pH 5.5
  S31N OOcyte Inhibition at 100 uM (%): B (key: (A)=31-95%; (B)=0-30%)
[2]; pH 5.5
  V27A OOcyte Inhibition at 100 uM (%): A (key: (A)=31-95%; (B)=0-30%)

## c1ccc2sc(CNC34CC5CC(CC(C5)C3)C4)nc2c1 [Example 91, Adamantan-1-yl-benzothiazol-2-ylmethyl-amine]
[1]; pH 5.5
  S31N OOcyte Inhibition at 100 uM (%): A (key: (A)=31-95%; (B)=0-30%)
[2]; pH 5.5
  V27A OOcyte Inhibition at 100 uM (%): B (key: (A)=31-95%; (B)=0-30%)

## c1csc(-c2ccc(CNC34CC5CC(CC(C5)C3)C4)s2)c1 [Example 78, N-([2,2′-Bithiophen]-5-ylmethyl)adamantan-1-amine]
[1]; pH 5.5
  S31N OOcyte Inhibition at 100 uM (%): A (key: (A)=31-95%; (B)=0-30%)
[2]; pH 5.5
  V27A OOcyte Inhibition at 100 uM (%): B (key: (A)=31-95%; (B)=0-30%)

## Oc1ccccc1CNC12CC3CC(CC(C3)C1)C2 [Example 28, 2-(Adamantan-1-ylaminomethyl)-phenol]
[1]; pH 5.5
  S31N OOcyte Inhibition at 100 uM (%): B (key: (A)=31-95%; (B)=0-30%)
[2]; pH 5.5
  V27A OOcyte Inhibition at 100 uM (%): B (key: (A)=31-95%; (B)=0-30%)

## Cc1ccsc1CNC12CC3CC(CC(C3)C1)C2 [Example 76a, N-((3-methylthiophen-2-yl)methyl)adamantan-1-amine]
[1]
  S31N OOcyte Inhibition at 100 uM (%): B (key: (A)=31-95%; (B)=0-30%)
[2]
  V27A OOcyte Inhibition at 100 uM (%): B (key: (A)=31-95%; (B)=0-30%)

## Cc1ccc(CNC23CC4CC(CC(C4)C2)C3)s1 [Example 78a, N-((5-methylthiophen-2-yl)methyl)adamantan-1-amine]
[1]
  S31N OOcyte Inhibition at 100 uM (%): A (key: (A)=31-95%; (B)=0-30%)
[2]
  V27A OOcyte Inhibition at 100 uM (%): A (key: (A)=31-95%; (B)=0-30%)

## c1ccn2c(CNC34CC5CC(CC(C5)C3)C4)cnc2c1 [Example 203a, Adamantan-1-yl-imidazo[1,2-a]pyridin-3-ylmethyl-amine]
[1]
  S31N OOcyte Inhibition at 100 uM (%): B (key: (A)=31-95%; (B)=0-30%)
[2]
  V27A OOcyte Inhibition at 100 uM (%): B (key: (A)=31-95%; (B)=0-30%)

## c1cc(-c2ccc(CNC34CC5CC(CC(C5)C3)C4)s2)co1 [Example 137a, N-((5-(Furan-3-yl)thiophen-2-yl)methyl)adamantan-1-amine]
[1]
  S31N OOcyte Inhibition at 100 uM (%): A (key: (A)=31-95%; (B)=0-30%)
[2]
  V27A OOcyte Inhibition at 100 uM (%): B (key: (A)=31-95%; (B)=0-30%)

## COc1ccc2cc(CNC34CC5CC(CC(C5)C3)C4)sc2c1 [Example 185a, N-((6-methoxybenzo[b]thiophen-2-yl)methyl)adamantan-1-amine]
[1]
  S31N OOcyte Inhibition at 100 uM (%): A (key: (A)=31-95%; (B)=0-30%)
[2]
  V27A OOcyte Inhibition at 100 uM (%): B (key: (A)=31-95%; (B)=0-30%)

## c1cc(-c2nnn[nH]2)ccc1CNC12CC3CC(CC(C3)C1)C2 [Example 15, Adamantan-1-yl-[4-(1H-tetrazol-5-yl)-benzyl]amine]
[1]; pH 5.5
  S31N OOcyte Inhibition at 100 uM (%): B (key: (A)=31-95%; (B)=0-30%)
[2]; pH 5.5
  V27A OOcyte Inhibition at 100 uM (%): B (key: (A)=31-95%; (B)=0-30%)

## c1csc(CNC23CC4CC(CC(C4)C2)C3)c1 [Example 70a, Adamantan-1-yl-thiophen-2-ylmethyl-amine]
[1]
  S31N OOcyte Inhibition at 100 uM (%): B (key: (A)=31-95%; (B)=0-30%)
[2]
  V27A OOcyte Inhibition at 100 uM (%): B (key: (A)=31-95%; (B)=0-30%)
